Series [1] deals with MDCK-MDR1 cells. An excerpt:
MDCK-MDR1 cells are monolayer cells with high expression of a P-gp transporter after MDR1 genes are transfected in MDCK (Madin-Darby canine kidney epithelial cells). Due to the compactness of the monolayer cells and high expression of a pharmaceutical efflux protein, the cells have a similarity to the structure of the blood-brain barrier (BBB), and can be used as one of the models for evaluating the BBB permeability. Because the compounds of the present invention targeted at the central nervous system and were needed to permeate the BBB, the MDCK-MDR1 cells were applied to research the membrane permeability, and the BBB permeability was preliminarily evaluated.
The cryopreserved MDCK-MDR1 cells were fast thawed in a 37° C. water bath. The postthawed cells were added into a DMEM culture medium containing 10% FBS, cultured in an incubator at 37° C., 5% CO2, with the relative humidity of 90%, and the culture medium was replaced every other day. After 1-2 days' growth for cell fusion, the cells were digested at 37° C., with the mixed digestion solution of 0.25% trysin-EDTA (0.2%), and subcultured according to a certain ratio, wherein the cells used for the experiment are 40˜60-generation cells.
When 80% of the cells were fused, the cells were suspended with a complete culture medium, and inoculated into a Millicell plate according to 1×10^6-mL^−1. The culture solution was changed once every two days, then once every day after 1 week. After cultured for 5 days, the cells were ready for transport experiment when the resistance achieves a platform (>2000 Ω·cm^2).
The solution in the lower pools was collected at 0, 30, 90 and 120 min and stored at −20° C. for later measurement. The permeation amount of the Rho-123 in the lower pools was detected by a fluorescence spectrophotometer, wherein the transmission wavelength was set to […] and the excitation wavelength was set to 530 nm.
The Millicell inoculated with cells was soaked with HBSS solution at 37° C. for an appropriate time before the test, and slightly flushed to remove matters attached on the surfaces of the cells. […] Each concentration was repeated in three wells, the sample was precisely added with 50 μL of internal standard solution and 350 μL of ethyl acetate, shaked and uniformly mixed, centrifugated at 12000 rmp for 5 min, 300 μL of supernatant was took, volatilized to dryness, re-dissolved with 50 μL of acetonitrile and 10 μL was took for sampling and determination. Permeability from the basal surface to the cavity surface: drug was added from the basolateral side (BL), while the blank HBSS solution was added from the apical side (AP), and the following steps were same as those in the permeability test from the cavity surface to the basal surface.
The apparent permeability coefficient (Papp) of the drug reflected the capability of permeating the monolayer cells of the drug and the absorption speed and degree of the drug, which can be calculated by the following formula: […]
wherein, ΔQ was the permeation amount of the drug in a Δt time period, A was the surface area of the cells, namely the area (0.6 cm^2) of a support membrane in the model, and CO was the initial concentration. The unit of the Papp was commonly represented by cm·h^−1 or cm·s^−1.
The sample was detected by LC/MS. Concentration of each sample was quantified with a standard curve (50 nM-10000 nM).

Series [2] concerns BCAO-LBP mice. The series can be described thus: Anti incomplete cerebral ischemia effect in mouse bilateral carotid artery occlusion with low blood pressure (BCAO-LBP) model, intragastric administration. The class given is in vivo, Kunming mice. The following applies: 30 mg/kg i.g once per day for 3 d, x ± SEM; for Neural deficit score: medium group 3.92 ± 0.25; for MDA content: whole brain, medium group 40.94 ± 1.754. An excerpt:
The example, which took Kunming mice as experimental subjects, investigated the protection of prevention administration of the compound of the present invention against incomplete cerebral ischemia of mice, through intravenous and intragastric administration, on mouse bilateral carotid artery occlusion with low blood pressure (BCAO-LBP) model, by measuring neurological function score and MDA content in brain.
2.1.2 Preparation of drug for intragastric administration: the compound of the present invention was made into 30 mg/kg by using 0.7% CMC-Na, fully and uniformly mixed with sonication to afford a solution of 1.5 mg/ml. Intragastric (i.g) administration was performed according to 0.2 ml/10 g.
28 mice which had adapted to the laboratory environment for one week were divided into balanced groups according to body weight, i.g administered respectively with 0.7% CMC-Na or the compound of the present invention, once per day for continuous 3 d. The specific groups were as follows:
drug group: 12 mice, with i. g of solution of compounds of the present invention separately, wherein the dosage was 30 mg/kg
2.3.1 Mouse bilateral carotid artery ligation: the mouse was performed with orbit bloodletting (about 30% of the total blood volume of the mouse) to lower the blood pressure 1 h later after last administration, then the mouse was fixed on an operation plate in a supine position, and an incision in the middle of the neck was made. The common carotid artery was exposed with blunt separation, and 2 sutures were prepared under each end of the exposed artery, and both end of the artery were ligatured, respectively. When the ligation was completed for the […], started timing, then cut the common carotid artery between the two ligations, and the incision was sutured. In the sham operation group, the common carotid artery was separated without ligation. The mouse was rapidly released after the operation, the behavior in 6 h and the death time of the mouse was observed and recorded (scored by a blind method according to the following table). The brain was quickly took out after death, the cerebellum was removed, and the MDA content in the whole brain was determined by a TBA method.
The brain of a mouse was taken out, weighted, prepared into 15% brain homogenate with N.S, 1.2 ml of the homogenate was taken out and put into a 37° C. water bath for 1 h (shaked once every 10 min), then taken out from water, added with 0.6 ml of 20% trichloroacetic acid, uniformly mixed, and stood for 10 min, centrifugated at 2000 r for 10 min, 1.2 ml of supernatant fluid was added with 0.6 ml of 0.67% TBA, and put into a boiling water bath for 10 min, then cooled, and OD value was determined at 532 nm.
Experimental data was represented by x±SEM, SPSS13.0 statistical software was applied, homogeneity of variance was judged by single-factor variance analysis. The homogeneity of variance was tested by LSD, the non-homogeneity of variance was tested by Dunnett's T3, the significant differences between the groups were compared and P<0.05 represented a statistical significance.

The subject of series [3] is chicken embryonic dorsal root ganglia. Nature of the series: Neurotrophic activity: in-vitro serum-free culture model of chicken embryonic dorsal root ganglia, neurite growth score. It is filed as cell-based. Conditions: 48 h, score 0-3, control 0.33. On the procedure: The neurotrophic activity of the compound of the present invention can be reflected on a variety of in-vitro biological models, such as an in-vitro serum-free culture model of chicken embryonic dorsal root ganglia. Chicken embryo incubated for 8 d was used, and spine and ganglia on the two sides were exposed under a dissecting microscope in sterile environment. The dorsal root ganglia was picked one by one with tweezers, inoculated into culture bottles laid with rat tail collagen according to 5-6 dorsal root ganglia per bottle, two bottles were prepared per dose, and cultured at 37° C., 5% of CO2, for 1 h in an incubator for adherence, then added with a serum-free culture medium DMEM containing NGF (0.15 ng/mL) and the compound of the present invention, while the control group was only added with the culture medium and the same dose of NGF. After being cultured in the incubator for 48 h, the growth of the neurite around dorsal root ganglia was observed under an inverted phase contrast microscope and scored according to the length and density of the neurite, wherein 0 point represents no neurite; 1 point represents the neurite was sparse; 2 points represent the neurite was relatively long or dense; and 3 points represent the neurite was long and dense. The score of the growth of neurite of chicken embryonic dorsal root ganglion under the promotion of the compound of the present invention with different dosage was shown in table 1, wherein each score is an average of five dorsal root ganglia.

[4] abbreviates: compound 1 pM + NGF (0.15 ng/mL).
Where [5] appears, read: compound 100 pM + NGF (0.15 ng/mL).

Usually melting point stands for the temperature of the solid-liquid transition. For the compound `Cc1ccc(S(=O)(=O)N2CCSC[C@H]2C(=O)N[C@H](CC(C)C)C(=O)O)cc1` (hydrate or solvate) [Example 10, (2R)-4-Methyl-2-{[(3R)-4-(toluene-4-sulfonyl)-thiomorpholine-3-carbonyl]-amino}-pentanoic acid], the melting point fell in the range of 87 to 89 °C.

In the case of `CCOC(=O)[C@H](CC(C)C)NC(=O)[C@@H]1CSCCN1S(=O)(=O)c1ccc(C)cc1` [Example 5, (2S)-4-Methyl-2-{[(3R)-4-(toluene-4-sulfonyl)-thiomorpholine-3-carbonyl]-amino}-pentanoic acid ethyl ester], the “Papp(×10^−6)” value in series [1] was 8.38 ×10^−6. In series [2], the Neural deficit score is 3.62 ± 0.31 and the MDA content was 36.09 ± 1.85 nmol/g. Further, in series [3] (setting [4]), the “Mean score (growth of neurite of chicken embryonic dorsal root ganglion)” value (“Mean score” below) stood at 0.65. Besides, in series [3] (setting [5]), the “Mean score” value turned out to be 1.55.

As for `CCOC(=O)[C@@H](CC(C)C)NC(=O)[C@@H]1CSCCN1S(=O)(=O)c1ccc(C)cc1` [Example 6, (2R)-4-Methyl-2-{[(3R)-4-(toluene-4-sulfonyl)-thiomorpholine-3-carbonyl]-amino}-pentanoic acid ethyl ester], the “Papp(×10^−6)” value in series [1] was 19.2 ×10^−6. In series [2], this compound returned a Neural deficit score of 3.08 ± 0.40 and an MDA content of 30.87 ± 0.95 nmol/g. In series [3] (setting [4]), the “Mean score” value is 1.23. In series [3] (setting [5]), the “Mean score” value turned out to be 1.88.

In the case of `CCCOC(=O)[C@@H](CC(C)C)NC(=O)[C@@H]1CSCCN1S(=O)(=O)c1ccc(C)cc1` [Example 7, (2R)-4-Methyl-2-{[(3R)-4-(toluene-4-sulfonyl)-thiomorpholine-3-carbonyl]-amino}-pentanoic acid propyl ester], in series [1], the “Papp(×10^−6)” value was 49.8 ×10^−6. The compound further displayed a Neural deficit score in series [2] of 2.91 ± 0.28. The same compound had an MDA content in series [2] of 34.90 ± 1.65 nmol/g. Besides, the “Mean score” value in series [3] (setting [4]) was found to be 1.46; in series [3] (setting [5]), 1.95.

As to `Cc1ccc(S(=O)(=O)N2CCSC[C@H]2C(=O)N[C@H](CC(C)C)C(=O)OC(C)C)cc1` [Example 8, (2R)-4-Methyl-2-{[(3R)-4-(toluene-4-sulfonyl)-thiomorpholine-3-carbonyl]-amino}-pentanoic acid isopropyl ester], the “Papp(×10^−6)” value in series [1] is given as 39.5 ×10^−6. In series [2], the Neural deficit score worked out at 2.67 ± 0.31. In series [2], this compound registered an MDA content of 33.27 ± 1.91 nmol/g. Further, the “Mean score” value in series [3] (setting [4]) is 1.68; in series [3] (setting [5]), 2.25.

Compound `Cc1ccc(S(=O)(=O)N2CCSC[C@H]2C(=O)N[C@H](CC(C)C)C(=O)OCc2ccccc2)cc1` [Example 9, (2R)-4-Methyl-2-{[(3R)-4-(toluene-4-sulfonyl)-thiomorpholine-3-carbonyl]-amino}-pentanoic acid benzyl ester] came in with a melting point of 91 to 93 °C. In series [1], the “Papp(×10^−6)” value is 12.4 ×10^−6.

For `Cc1ccc(S(=O)(=O)N2CCSC[C@H]2C(=O)N[C@H](CC(C)C)C(=O)O)cc1` [Example 10, (2R)-4-Methyl-2-{[(3R)-4-(toluene-4-sulfonyl)-thiomorpholine-3-carbonyl]-amino}-pentanoic acid], the “Papp(×10^−6)” value in series [1] is 34.1 ×10^−6.

Values taken from US9359314B2, “Thiazine amide derivative and pharmaceutical composition and use thereof” (Institute Of Pharmacology And Toxicology Academy Of …, priority 2012, dated 2016).
